14 molecules from the NIST ThermoML archive (doi:10.1016/j.jct.2012.06.009) can be followed below.

Each structure is given as a SMILES string. ± gives the expanded uncertainty stated by the source.

The nature of this data set: activity coefficient (dimensionless); of the first substance listed, at infinite dilution; xn = mol fraction of the nth substance listed. Particulars: 101 kPa, Liquid, Chromatography, x1 = 0.

For the molecule `CC(C)O` [propan-2-ol] + CCCCCCCCCCCCCC(=O)O, the activity coefficient runs as follows: (314.1 K) 1.39 ± 0.12; (314.24 K) 1.42 ± 0.12; (333.26 K) 1.3 ± 0.11; (333.38 K) 1.3 ± 0.11; (353.25 K) 1.19 ± 0.099; (353.3 K) 1.19 ± 0.099.
With `CC(C)O` [propan-2-ol] + CCCCCCCCCCCCCCCC(=O)O, the activity coefficient by setting is: (340.19 K) 1.47 ± 0.12; (348.01 K) 1.41 ± 0.12; (358.32 K) 1.29 ± 0.11.
Consider `Cc1ccccc1` [toluene] + CCCCCCCCCC(=O)O, for which the activity coefficient by setting is: (314.1 K) 1.15 ± 0.095; (314.24 K) 1.17 ± 0.097; (333.26 K) 1.12 ± 0.093; (333.38 K) 1.12 ± 0.092; (353.25 K) 1.14 ± 0.095; (353.3 K) 1.16 ± 0.096.
`Cc1ccccc1` [toluene] + CCCCCCCCCCCC(=O)O: the activity coefficient came out at 1.06 ± 0.088 (314.1 K); 1.08 ± 0.089 (314.24 K); 1.07 ± 0.088 (333.26 K); 1.04 ± 0.086 (333.38 K); 1.05 ± 0.087 (353.3 K).
On to `Cc1ccccc1` [toluene] + CCCCCCCCCCCCCC(=O)O, for which the activity coefficient was found to be 0.926 ± 0.076 (338.27 K), 1.01 ± 0.083 (338.29 K), 0.958 ± 0.079 (348.2 K) and 0.93 ± 0.077 (358.33 K).
In the case of `Cc1ccccc1` [toluene] + CCCCCCCCCCCCCCCC(=O)O, the activity coefficient (340.19 K) is 0.934 ± 0.077, the activity coefficient (348.01 K) was 0.935 ± 0.077 and the activity coefficient (358.22 K) amounted to 0.934 ± 0.077.
In the case of `ClC=C(Cl)Cl` [trichloroethene] + CCCCCCCCCC(=O)O, the activity coefficient runs as follows: (314.1 K) 1.05 ± 0.086; (314.24 K) 1.04 ± 0.085; (333.26 K) 1 ± 0.082; (333.38 K) 1.01 ± 0.083; (353.08 K) 0.945 ± 0.078; (353.3 K) 0.969 ± 0.08.
As for `ClC=C(Cl)Cl` [trichloroethene] + CCCCCCCCCCCC(=O)O, the activity coefficient was 0.952 ± 0.078 (314.1 K); 0.967 ± 0.079 (314.24 K); 0.944 ± 0.078 (333.26 K); 0.951 ± 0.078 (333.38 K); 0.933 ± 0.077 (353.25 K).
For the molecule `ClC=C(Cl)Cl` [trichloroethene] + CCCCCCCCCCCCCC(=O)O, the activity coefficient was 0.847 ± 0.07 (314.1 K); 0.843 ± 0.07 (314.24 K); 0.842 ± 0.07 (333.26 K); 0.838 ± 0.07 (333.38 K); 0.842 ± 0.07 (353.25 K); 0.824 ± 0.069 (353.3 K).
Take `ClC=C(Cl)Cl` [trichloroethene] + CCCCCCCCCCCCCCCC(=O)O: the activity coefficient was 0.831 ± 0.069 (340.19 K), 0.826 ± 0.069 (348.01 K) and 0.831 ± 0.069 (358.22 K).
With `ClC(Cl)Cl` [trichloromethane] + CCCCCCCCCC(=O)O, the activity coefficient by setting is: (314.1 K) 0.823 ± 0.069; (314.24 K) 0.846 ± 0.07; (333.26 K) 0.85 ± 0.071; (333.38 K) 0.827 ± 0.069; (353.3 K) 0.825 ± 0.069.
The corresponding values for `ClC(Cl)Cl` [trichloromethane] + CCCCCCCCCCCC(=O)O are 0.81 ± 0.068, 0.81 ± 0.068, 0.832 ± 0.069, 0.818 ± 0.068 and 0.839 ± 0.07.
In the case of `ClC(Cl)Cl` [trichloromethane] + CCCCCCCCCCCCCC(=O)O, the activity coefficient (314.1 K) was determined as 0.743 ± 0.063; the activity coefficient (314.24 K) stood at 0.743 ± 0.063; the activity coefficient (333.26 K) stood at 0.739 ± 0.063; the activity coefficient (333.38 K) is 0.74 ± 0.063; the activity coefficient (353.25 K) is 0.746 ± 0.064; the activity coefficient (353.3 K) came out at 0.727 ± 0.062.
With `ClC(Cl)Cl` [trichloromethane] + CCCCCCCCCCCCCCCC(=O)O, the activity coefficient by setting is: (340.19 K) 0.748 ± 0.063; (348.01 K) 0.739 ± 0.063; (358.22 K) 0.759 ± 0.064.
